According to patent publication US20060046972A1, “Cytotoxic nucleoside analog compound 003 for treating cancer” (Parker Hughes Institute, priority 2004, published 2006):

Test system: Lewis rats
Experiment: Cumulative toxicity of intraperitoneal doses in Lewis rats
Assay type: in vivo
Set-up: RBC: unit not given here
Details: for ALC / ALT / ANC / AST / Albumin / Ammonia / Amylase / BUN / CPK / Calcium / Creatinine / Mean Weight Change (g ± SEM) / Mean Weight Change [%] / Morbidity / Phosphate / RBC / Total Bilirubin / Total Protein / Toxic Organ Lesions / Triglycerides / WBC / Weight Gain / Weight Loss: day 30
Description: 1.2.8 Animals Female CD-1 mice (Body weight: ˜25 g; Age: 7 week old) were purchased, from Charles River Laboratories (Willmington, Mass., USA). MMTV Neu-mice [FVB/N-TgN(MMTV neu)202MUL; Jackson Laboratory, Bar Harbor, Me.] were bred to produce multiple litters. All mice were housed in microisolator cages (Lab Products, Inc., Maywood, N.Y., USA) containing autoclaved bedding in a controlled specific pathogen-free (SPF) environment (12-h light/12-h dark photoperiod, 22±1° C., 60±10% relative humidity), which is fully accredited by the USDA (United States Department of Agriculture). Adult male Lewis rats (Body weight: ˜160 g) were obtained from the specific pathogen-free (SPF) breeding facilities of Harlan Sprague Dawley (Indianapolis, Id., USA) at 14 weeks of age. All husbandry and experimental contact made with the mice and rats maintained SPF conditions. The rats were kept in microisolater cages (Allentown Caging Equipment Co., Inc., Allentown, N.J., USA) containing autoclaved food, water, and bedding. Animal studies were approved by Parker Hughes Institute Animal Care and Use Committee and all animal care procedures 1.5 conformed to the Guide for the Care and Use of Laboratory Animals (National Research Council, National Academy Press, Washington D.C. 1996, USA).
The toxicity profile of Compound 003 in CD-1 mice and Lewis rats was examined, using standard procedures as previously reported for other experimental drugs (Uckun, et al., 2003, Arzneimittelforschun. 53:357; Uckun, et al., 2002, Clin Cancer Res. 8: 1224; Uckun, et al., 2002, Antimicrob Agents Chemother. 46:3428). In brief, mice and rats were treated with intraperitoneal injections of vehicle or Compound 003 at multiple dose levels. Compound 003 was administered as a 0.2 mL (for mice) or 0.5 mL (for rats) bolus injection containing 10% DMSO as a vehicle. Animals were allowed free access to autoclaved standard pellet food and tap water throughout the experiments and monitored daily for morbidity and mortality. Animals were electively sacrificed on day 7 or day 30 to determine the toxicity of Compound 003 by examining their blood chemistry profiles, blood counts, and evaluating multiple organs for the presence of toxic lesions. Blood was collected by intracardiac puncture following anesthesia with ketamine:xylazine and immediately heparinized. The blood chemistry profiles were examined using a Synchron CX5CE Chemical Analyzer (Beckman Instruments, Inc., Fullerton, Calif., USA). Blood counts (red blood cells [RBC], white blood cells [WBC] and platelets [Plt]) were determined using a HESKA Vet ABC-Diff Hematology Analyzer (HESKA Corporation, Fort Collins, Colo., USA). Absolute neutrophil counts (ANC) and absolute lymphocyte counts (ALC) were calculated from WBC values after determining the percentages of neutrophils and lymphocytes by a manual differential count. At the time of necropsy, […] from mice (bone, bone marrow, brain, cecum, heart, kidney, large intestine, liver, lung, lymph node, ovary, pancreas, skeletal muscle, skin, small intestine, spleen, stomach, thymus, thyroid gland, urinary bladder, and uterus, as available) and 21 different tissues from rats (bone, bone marrow, brain, coagulating gland, epididymis, heart, large intestine, small intestine, kidney, liver, lung, pancreas, peripheral nerve/spinal nerve, skeletal muscle, skin, spinal cord, spleen, stomach, testes, thymus, urinary bladder) were collected within 15 minutes after sacrifice, gross pathological findings were documented, organs were preserved in 10% neutral phosphate buffered formalin, and processed for histopathological examination. For histopathologic studies, formalin fixed tissues were dehydrated and embedded in paraffin by routine methods. Glass slides with affixed 4-5 micron tissue sections were prepared and stained with Hemotoxylin and Eosin (H&E). […]

[1] = 20 mg/kg i.p. for 30 consecutive days
[2] = 40 mg/kg i.p. for 30 consecutive days
[3] = 80 mg/kg i.p. for 30 consecutive days

## COC(=O)C(C)NP(=O)(OCC1OC(n2cc(C)c(=O)[nH]c2=O)CC1N=[N+]=[N-])Oc1ccc(OC)cc1 (stereo not shown) [Compound 003, 3′-azidothymidine 5′-[p-methoxyphenylmethoxyalaninyl phosphate]]
[1]
  ALC: 9.6 ± 0.0 ×10^9L
  ALT: 68.0 ± 5.5 IU/L
  ANC: 2.4 ± 0.0 ×10^9L
  AST: 7.6 ± 1.6 IU/L
  Albumin: 1.5 ± 0.0 g/dL
  Ammonia: 77.2 ± 4.1 µmol/L
  Amylase: 1667.1 ± 29.8 U/L
  BUN: 21.8 ± 0.4 mg/dL
  CPK: 546.1 ± 109.9 IU/L
  Calcium: 10.9 ± 0.1 mg/dL
  Creatinine: 0.6 ± 0.0 mg/dL
  Mean Weight Change (g ± SEM): 9.02 ± 1.39 g
  Mean Weight Change [%]: (2.68 ± 0.41%)
  Morbidity: 0/10
  Phosphate: 6.2 ± 0.2 mg/dL
  RBC: 10.0 ± 0.1 ×10^9
  Total Bilirubin: 0.6 ± 0.1 mg/dL
  Total Protein: 6.3 ± 0.1 g/dL
  Toxic Organ Lesions: 0/10
  Triglycerides: 87.4 ± 9.9 mg/dL
  WBC: 11.9 ± 0.4 ×10^9/L
  Weight Gain: 10/10
  Weight Loss: 0/10
[2]
  ALC: 10.7 ± 0.0 ×10^9L
  ALT: 64.2 ± 1.4 IU/L
  ANC: 1.9 ± 0.0 ×10^9L
  AST: 6.8 ± 1.0 IU/L
  Albumin: 1.6 ± 0.0 g/dL
  Ammonia: 91.4 ± 8.2 µmol/L
  Amylase: 1586.3 ± 31.4 U/L
  BUN: 21.8 ± 0.3 mg/dL
  CPK: 409.4 ± 55.3 IU/L
  Calcium: 10.4 ± 0.1 mg/dL
  Creatinine: 0.5 ± 0.0 mg/dL
  Mean Weight Change (g ± SEM): 9.66 ± 1.36 g
  Mean Weight Change [%]: (2.85 ± 0.38%)
  Morbidity: 0/10
  Phosphate: 5.6 ± 0.1 mg/dL
  RBC: 10.1 ± 0.1 ×10^9
  Total Bilirubin: 0.6 ± 0.1 mg/dL
  Total Protein: 6.1 ± 0.1 g/dL
  Toxic Organ Lesions: 0/10
  Triglycerides: 103.0 ± 10.7 mg/dL
  WBC: 12.9 ± 0.4 ×10^9/L
  Weight Gain: 10/10
  Weight Loss: 0/10
[3]
  ALC: 10.0 ± 0.0 ×10^9L
  ALT: 62.5 ± 1.8 IU/L
  ANC: 2.1 ± 0.0 ×10^9L
  AST: 9.4 ± 0.7 IU/L
  Albumin: 1.6 ± 0.0 g/dL
  Ammonia: 92.8 ± 6.0 µmol/L
  Amylase: 1658.3 ± 51.8 U/L
  BUN: 22.7 ± 0.7 mg/dL
  CPK: 371.0 ± 44.3 IU/L
  Calcium: 10.5 ± 0.2 mg/dL
  Creatinine: 0.6 ± 0.0 mg/dL
  Mean Weight Change (g ± SEM): 7.37 ± 1.70 g
  Mean Weight Change [%]: (2.24 ± 0.51%)
  Morbidity: 0/10
  Phosphate: 5.9 ± 0.1 mg/dL
  RBC: 9.8 ± 0.1 ×10^9
  Total Bilirubin: 0.7 ± 0.1 mg/dL
  Total Protein: 6.3 ± 0.1 g/dL
  Toxic Organ Lesions: 0/10
  Triglycerides: 83.4 ± 11.2 mg/dL
  WBC: 12.2 ± 0.3 ×10^9/L
  Weight Gain: 9/10
  Weight Loss: 1/10
20-80 mg/kg/day for 30 days
  postmortem gross pathology: did not reveal any gross pathological findings
80 and 40 mg/kg
  Slight tubular degeneration, share of animals: 50%
Day 30, 20-80 mg/kg/day
  systemic toxicity by blood tests: did not suggest any significant systemic toxicity
i.p. daily for up to 30 days, daily dose as high as 80 mg/kg, cumulative as high as 2.4 g/kg
  tolerability: well tolerated
